From US20240125729A1, “METHODS AND RELATED ASPECTS OF DETECTING TARGET MOLECULES USING CYCLIC VOLTAMMETRY” (THE JOHNS HOPKINS UNIVERSITY, priority 2021, published 2024) come the findings set out here.

The test system of assay [1] is tobramycin-binding aptamer. Briefly: Cyclic voltammetry (ΔEP / IP) interrogation of tobramycin-detecting E-AB sensors. The text has this:
The magnitude of ΔEP in cyclic voltammetry can be used to interrogate changes in the apparent electron transfer kinetics of E-AB sensors. ΔEP is affected by a mass transfer (diffusional) component related to the conformation switching behavior of aptamers; thus, measured changes in ΔEP reflect target-binding induced changes in aptamer conformation. We first illustrate this effect employing tobramycin-detecting E-AB sensors (FIG. 5), which have been extensively validated in the literature and represent a well-understood model system. In these E-AB sensors, interrogation by cyclic voltammetry in the absence of target and at voltage scanning rates of ˜1-10 V·s^−1 results in voltammograms with a ΔEP ˜100 mV (FIG. 5A). However, the addition of a saturating concentration of tobramycin (10 mM) causes a significant increase in apparent electron transfer kinetics with a concomitant decrease in ΔEP to ˜30 mV (FIG. 5A, B). Similar measurements at varying tobramycin concentrations can be translated into dose-response curves (FIG. 5C). The dissociation constant estimated by extrapolating the mid-point of these dose-response curves to the x-axis, KD˜80 μM, is similar to previously reported KD measurements based on chronoamperometric and differential pulse measurements.
As with all E-AB interrogation methods, there is a tradeoff between the maximum signal gain observed by ΔEP and the apparent dissociation constant of the sensors. To illustrate this, we measured dose-response curves as shown in FIG. 5C at scanning rates ranging from 0.5 to 100 V·s^−1 (FIG. 6). Then, we determined the apparent dissociation constant at each scanning rate by performing a non-linear regression of the data sets using the Hill isotherm. […] Moreover, the shape of the voltammograms was distorted at fast scanning rates, preventing the accurate determination of ΔEP (FIG. 8). Thus, taking into consideration the results presented in FIGS. 7A and B, we determined that the best CV interrogation rate for tobramycin-detecting E-AB sensor was 5 V·s^−1.
E-AB interrogation via ΔEP achieves larger signal gains relative to interrogation based on CV peak heights. To illustrate this point, we measured dose-response curves at the optimal voltage scanning rate of 5 V·s^−1 and compared the response based on voltammogram peak currents, IP, at varying tobramycin concentrations relative to the proposed ΔEP-based method (FIG. 7C). To achieve a direct comparison between approaches, we calculated the relative change in signal at each concentration with respect to the signal measured in the absence of target (this is common practice in the field). By graphing IP vs concentration, we observed a ‘signal-on’ type of response, with IP increasing to a plateau of 20% relative signal change at saturation. Using ΔEP, in contrast, we observed a ‘signal-off’ type of response, with ΔEP decreasing by 80% relative signal change at saturation. […] On the other hand, ΔEP provides a signal-off response that is less desirable than the signal-on response achieved by monitoring IP. Typically, the use of signal-off sensing is sub-optimal for continuous monitoring in complex fluids, as matrix effects can induce signal decreases unrelated to fluctuations in target concentration that can be confounding during sensing.
ΔEP-based interrogation of E-AB sensors supports molecular measurements in complex media such as undiluted serum. Moreover, the approach can be used to interrogate E-AB sensors detecting different molecular targets. […] Furthermore, the relative change in ΔEP at 10 mM tobramycin was 30% less than the gain seen in phosphate-buffered saline. Both of these effects were previously reported for serum tobramycin E-AB measurements performed by chronoamperometry, confirming that ΔEP is not more prone to fouling than, for example, chronoamperometric current decay lifetimes. […]

In assay [2] the target is procaine-binding aptamer. The assay is described as follows: Square wave voltammetry calibration of procaine-binding E-AB sensors. Particulars: 100 Hz, amplitude 50 mV, step 1 mV, read-out: KD (dissociation constant) by square-wave voltammetry. The method, then:
FIG. 12 is a plot showing a calibration curve for procaine-binding E-AB sensors obtained by square wave voltammetry. The Hill's coefficient and dissociation constant obtained were 0.97±0.05 and 1.9±0.2 mM, respectively. Each point represents the average of 5·measurements at a frequency of 100 Hz, amplitude of 50 mV, and step potential of 1 mV.
These sequences were purchased modified on the 5′end with hexanethiol and on the 3′end with MB, and double HPLC purified. To prepare aptamer solutions for electrode modification, 1 μL of 100 μM of the modified sequences was incubated with 2 μL of 5 mM TCEP solution in water for 1 hour to reduce the disulfide bonds. Then, we diluted the aptamer solutions in 1 mM 6-mercaptohexanol aqueous solution to a final aptamer concentration of 500 nM.
Electrochemical measurements. Gold working (PN 002314, d=1.6 mm) and coiled platinum wire counter electrodes (PN 012961) were purchased from ALS Inc. (Japan). Ag/AgCl (1M KCl) reference electrodes (PN CHI111) were purchased from CH Instruments (USA). […] Cyclic voltammograms were recorded at different scan rates in the potential window from −0.5 V to +0.1 V vs Ag/AgCl (1M KCl). Square-wave voltammograms were recorded from 0 V to −0.5 V vs Ag/AgCl (1M KCl) with an amplitude of 50 mV, a step size of 1 mV, and at 300 Hz. […]
(§1) Electrode modification. […] After rinsing with water, electrodes were ready for use. […]

Assay [3] concerns the target procaine-binding aptamer. Briefly: Cyclic voltammetry ΔEP interrogation of procaine-detecting E-AB sensors in undiluted serum. The method, then: (§2) ΔEP-based interrogation of E-AB sensors supports molecular measurements in complex media such as undiluted serum. Moreover, the approach can be used to interrogate E-AB sensors detecting different molecular targets. […] Furthermore, the relative change in ΔEP at 10 mM tobramycin was 30% less than the gain seen in phosphate-buffered saline. Both of these effects were previously reported for serum tobramycin E-AB measurements performed by chronoamperometry, confirming that ΔEP is not more prone to fouling than, for example, chronoamperometric current decay lifetimes. […] Last, procaine-detecting E-AB sensors presented the largest change in ΔEP, corresponding to a relative decrease of ˜80% at saturating procaine concentrations (FIG. 11C). Based on our calibration curve, the procaine-binding aptamer has a KD of ˜500 μM, slightly better than the affinity obtained by, for example, square-wave voltammetry (KD˜2 mM, FIG. 12). […]
(§3) Electrochemical measurements. […] Cyclic voltammograms were recorded at different scan rates in the potential window from −0.5 V to +0.1 V vs Ag/AgCl (1M KCl). Square-wave voltammograms were recorded from 0 V to −0.5 V vs Ag/AgCl (1M KCl) with an amplitude of 50 mV, a step size of 1 mV, and at 300 Hz. […]
as §1

The target of assay [4] is vancomycin-binding aptamer. Briefly: Cyclic voltammetry ΔEP interrogation of vancomycin-detecting E-AB sensors in undiluted serum. The protocol:
as §2, §3, §1

The mark [5] stands for this setting: CV 5 V·s^−1, phosphate-buffered saline, relative to no target.

Each structure is given as a SMILES string. Where “and” joins values, the source holds several entries; their conditions need not be identical. Identical values can stand only once.

For `NC[C@H]1O[C@H](O[C@H]2[C@H](O)[C@@H](O[C@H]3O[C@H](CO)[C@@H](O)[C@H](N)[C@H]3O)[C@H](N)C[C@@H]2N)[C@H](N)C[C@@H]1O` [tobramycin], the “relative change in ΔEP in undiluted serum, less than the gain seen in phosphate-buffered saline” value in assay [1] (10 mM tobramycin, undiluted serum vs phosphate-buffered saline) stood at 30%. For the same compound, in assay [1] (setting [5]), the “IP (peak current) increase, relative signal change at saturation (signal-on)” value was determined as 20% and the “ΔEP decrease, relative signal change at saturation (signal-off)” value stood at 80%. Besides, the Kd in assay [1] (CV at 5 V·s^−1, phosphate-buffered saline, Hill fit, 5 electrodes, read-out: KD (dissociation constant from ΔEP dose-response curve)) was 80 ± 7 µM. Further, in assay [1] (saturating tobramycin 10 mM, without target ~100 mV, scanning rates ~1-10 V·s^−1), the “ΔEP (peak-to-peak separation) after target addition” value is around 30 mV. For the same compound, the “affinity in undiluted serum relative to phosphate-buffered saline” value in assay [1] (undiluted serum, ΔEP-based interrogation) is recorded as “significant decrease in affinity”.
Consider `CCN(CC)CCOC(=O)c1ccc(N)cc1` [procaine], for which the Kd is 1.9 mM and ~2 mM at procaine-binding aptamer [2]; around 500 µM on procaine-binding aptamer [3] (cyclic voltammetry, read-out: KD from calibration curve (ΔEP)). Further, in the assay with procaine-binding aptamer [3] (saturating procaine), the “relative decrease in ΔEP at saturating concentration” value is recorded as around 80%.
As for `CN[C@H](CC(C)C)C(=O)N[C@H]1C(=O)N[C@@H](CC(N)=O)C(=O)N[C@H]2C(=O)N[C@H]3C(=O)N[C@H](C(=O)N[C@H](C(=O)O)c4cc(O)cc(O)c4-c4cc3ccc4O)[C@H](O)c3ccc(c(Cl)c3)Oc3cc2cc(c3O[C@@H]2O[C@H](CO)[C@@H](O)[C@H](O)[C@H]2O[C@H]2C[C@](C)(N)[C@H](O)[C@H](C)O2)Oc2ccc(cc2Cl)[C@H]1O` [vancomycin], in assay [4] (read-out: KD from serum calibration curve (ΔEP)), the Kd was around 60 µM. The “total relative change in ΔEP at saturating concentration” value in assay [4] (saturating vancomycin) was around 50%.
